Reference: US12054447B2, “PCNA inhibitors” (City of Hope, priority 2015, dated 2024)

Tests used:
PBMC = assay: Cell growth, CellTitor-Glo assay, 72 h; assay type: cell-based, human; settings: Homo sapiens; PBMC (non-malignant)
Experimental: The human NB cell lines, SK-N-DZ, SK-N-BE(2)c, SK-N-AS, and LAN-5 obtained from the American Type Culture Collection (Rockville, MD), were cultured in DMEM with 10% fetal bovine serum (FBS), 100 units/ml penicillin, and 100 μg/ml streptomycin in the presence of 5% CO2 at 37° C. Human PBMCs from a healthy donor were purchased from Sanguine BioSciences (Valencia, CA) and grown in RPMI1640 with 10% FBS, 100 units/ml penicillin, 100 μg/ml streptomycin, and 10 ng/ml IL-2 in the presence of 5% CO2 at 37° C. Human embryonic progenitor cell line 7SM0032 was acquired from Millipore (Billerica, MA) and grown in the hEPM-1 Media Kit purchased from the same company. The plasmid pCBASce expresses the rare cutting I-SceI meganuclease. The U20S-derived cell lines, DR-GFP and EJ5-GFP, each contain a stably transfected reporter gene for DSB repair mediated by HR and end joining (EJ), respectively. These cell lines were cultured in DMEM medium with 10% FBS at 37° C. in the presence of 5% CO2.
To measure the effect of the compounds on cell growth, cells were seeded at 3×10^4/ml into a 96-well plate. Once attached, cells were treated with various concentrations of AOH1160 for 72 h. Cell growth was measured by the CellTitor-Glo assay (Promega, Madison, WI) according to the manufacturer's instructions. To measure apoptosis, cells were seeded at 1×10^5/ml onto a chamber slide. Once attached, cells were treated with the 500 nM AOH1160 for 24 h. Cells were fixed and analyzed by a TUNEL assay using the TMR red in situ cell death detection kit (Roche Diagnostics, Indianapolis, IN).

786-0 = assay: NCI-60 panel test; assay type: cell-based; settings: Homo sapiens; 786-0, NCI-60 5-dose study
Experimental: (§1) FIG. 7. NCI-60 panel test. The effect of AOH1160 on growth of the NCI-60 panel, which consists of 60 cancer cell lines representing 9 major cancer types, was tested in a 5-dose study. Shown are the Log IC50 values determined for each cell line. […] This study was performed by the National Institute of Cancer.
(§2) As observed in FIG. 7, the effect of AOH1160 on growth of the NCI-60 panel, which consists of 60 cancer cell lines representing 9 major cancer types, was tested in a 5-dose study. Shown are the Log IC50 values determined for each cell line.

A498 = assay: NCI-60 panel test; assay type: cell-based; settings: Homo sapiens; A498, NCI-60 5-dose study
Experimental: as §1, §2

A549/ATCC = assay: NCI-60 panel test; assay type: cell-based; settings: Homo sapiens, NCI-60 5-dose study
Experimental: as §1, §2

ACHN = assay: NCI-60 panel test; assay type: cell-based; settings: Homo sapiens, NCI-60 5-dose study
Experimental: as §1, §2

BT-549 = assay: NCI-60 panel test; assay type: cell-based; settings: Homo sapiens; BT-549, NCI-60 5-dose study
Experimental: as §1, §2

COLO 205 = assay: NCI-60 panel test; assay type: cell-based; settings: Homo sapiens
Experimental: as §1, §2

HCC-2998 = assay: NCI-60 panel test; assay type: cell-based; settings: Homo sapiens; HCC-2998, NCI-60 5-dose study
Experimental: as §1, §2

HCT-116 = assay: NCI-60 panel test; assay type: cell-based; settings: Homo sapiens; HCT-116, NCI-60 5-dose study
Experimental: as §1, §2

HCT-15 = assay: NCI-60 panel test; assay type: cell-based; settings: Homo sapiens; HCT-15, NCI-60 5-dose study
Experimental: as §1, §2

HL-60(TB) = assay: NCI-60 panel test; assay type: cell-based; settings: Homo sapiens, NCI-60 5-dose study
Experimental: as §1, §2

HS 578T = assay: NCI-60 panel test; assay type: cell-based; settings: Homo sapiens, NCI-60 5-dose study
Experimental: as §1, §2

HT29 = assay: NCI-60 panel test; assay type: cell-based; settings: Homo sapiens, HT-29; HT29, NCI-60 5-dose study
Experimental: as §1, §2

KM12 = assay: NCI-60 panel test; assay type: cell-based; settings: Homo sapiens; KM12, NCI-60 5-dose study
Experimental: as §1, §2

LOX IMVI = assay: NCI-60 panel test; assay type: cell-based; settings: Homo sapiens, NCI-60 5-dose study
Experimental: as §1, §2

MCF7 = assay: NCI-60 panel test; assay type: cell-based; settings: Homo sapiens; MCF7, NCI-60 5-dose study
Experimental: as §1, §2

MDA-MB-435 = assay: NCI-60 panel test; assay type: cell-based; settings: Homo sapiens; MDA-MB-435, NCI-60 5-dose study
Experimental: as §1, §2

MOLT-4 = assay: NCI-60 panel test; assay type: cell-based; settings: Homo sapiens; MOLT-4, NCI-60 5-dose study
Experimental: as §1, §2

NCI-H23 = assay: NCI-60 panel test; assay type: cell-based; settings: Homo sapiens; NCI-H23, NCI-60 5-dose study
Experimental: as §1, §2

OVCAR-4 = assay: NCI-60 panel test; assay type: cell-based; settings: Homo sapiens; OVCAR-4, NCI-60 5-dose study
Experimental: as §1, §2

PC-3 = assay: NCI-60 panel test; assay type: cell-based; settings: Homo sapiens; PC-3, NCI-60 5-dose study
Experimental: as §1, §2

SF-539 = assay: NCI-60 panel test; assay type: cell-based; settings: Homo sapiens; SF-539, NCI-60 5-dose study
Experimental: as §1, §2

SK-MEL-2 = assay: NCI-60 panel test; assay type: cell-based; settings: Homo sapiens; SK-MEL-2, NCI-60 5-dose study
Experimental: as §1, §2

SN12C = assay: NCI-60 panel test; assay type: cell-based; settings: Homo sapiens, NCI-60 5-dose study
Experimental: as §1, §2

SNB-19 = assay: NCI-60 panel test; assay type: cell-based; settings: Homo sapiens; SNB-19, NCI-60 5-dose study
Experimental: as §1, §2

SR = assay: NCI-60 panel test; assay type: cell-based; settings: Homo sapiens, NCI-60 5-dose study
Experimental: as §1, §2

SW-620 = assay: NCI-60 panel test; assay type: cell-based; settings: Homo sapiens; SW-620, NCI-60 5-dose study
Experimental: as §1, §2

UACC-62 = assay: NCI-60 panel test; assay type: cell-based; settings: Homo sapiens; UACC-62, NCI-60 5-dose study
Experimental: as §1, §2

UO-31 = assay: NCI-60 panel test; assay type: cell-based; settings: Homo sapiens; UO-31, NCI-60 5-dose study
Experimental: as §1, §2

| Structure (SMILES) | IC50 (PBMC) | GI50 (786-0) | GI50 (A498) | GI50 (A549/ATCC) | GI50 (ACHN) | GI50 (BT-549) | GI50 (COLO 205) | GI50 (HCC-2998) | GI50 (HCT-116) | GI50 (HCT-15) | GI50 (HL-60(TB)) | GI50 (HS 578T) | GI50 (HT29) | GI50 (KM12) | GI50 (LOX IMVI) | GI50 (MCF7) | GI50 (MDA-MB-435) | GI50 (MOLT-4) | GI50 (NCI-H23) | GI50 (OVCAR-4) | other results |
| --- | --- | --- | --- | --- | --- | --- | --- | --- | --- | --- | --- | --- | --- | --- | --- | --- | --- | --- | --- | --- | --- |
| O=C(CNC(=O)c1cccc2ccccc12)Nc1ccccc1Oc1ccc(O)cc1 [PCNA1] | > 20 µM | 1.05 µM | 1.02 µM | 1.48 µM | 1.86 µM | 1.62 µM | 0.794 µM | 8.91 µM | 0.977 µM | 0.912 µM | 0.708 µM | 1.35 µM | 1 µM | 0.912 µM | 1.74 µM | 0.851 µM | 0.162 µM | 1.2 µM | 2.14 µM | 2.82 µM | GI50 (PC-3): 1.32 µM; GI50 (SF-539): 0.692 µM; GI50 (SK-MEL-2): 25.1 µM; GI50 (SN12C): 2.19 µM; GI50 (SNB-19): 1.41 µM; GI50 (SR): 0.457 µM; GI50 (SW-620): 0.912 µM; GI50 (UACC-62): 1.17 µM; GI50 (UO-31): 1.78 µM |
| COc1cccc(Oc2ccccc2NC(=O)CNC(=O)c2cccc3ccccc23)c1 [PCNA7/ AOH1996] | > 20 µM | 0.182 µM | 0.115 µM | 0.316 µM | 0.398 µM | 0.295 µM | 0.282 µM | 1.26 µM | 0.0955 µM | 0.129 µM | 0.0813 µM | 0.38 µM | 0.11 µM | 0.191 µM | 0.269 µM | 0.1 µM | 0.0708 µM | 0.661 µM | 0.741 µM | 0.776 µM | GI50 (PC-3): 0.282 µM; GI50 (SF-539): 0.224 µM; GI50 (SK-MEL-2): 0.182 µM; GI50 (SN12C): 1.45 µM; GI50 (SNB-19): 0.617 µM; GI50 (SR): 0.115 µM; GI50 (SW-620): 0.166 µM; GI50 (UACC-62): 0.209 µM; GI50 (UO-31): 1.82 µM |
| O=C(CNC(=O)c1cccc2ccccc12)Nc1ccccc1Oc1cccc(O)c1 [PCNA2] | > 20 µM | 10 µM | 5.13 µM | 9.55 µM | 17.4 µM | 25.1 µM | 14.8 µM | 25.1 µM | 1.38 µM | 3.16 µM | 1.32 µM | 5.75 µM | 21.4 µM | 2.19 µM | 15.1 µM | 4.47 µM | 0.759 µM | 4.9 µM | 15.8 µM | 25.1 µM | GI50 (PC-3): 7.08 µM; GI50 (SF-539): 4.07 µM; GI50 (SK-MEL-2): 25.1 µM; GI50 (SN12C): 25.1 µM; GI50 (SNB-19): 8.71 µM; GI50 (SR): 1.05 µM; GI50 (SW-620): 3.09 µM; GI50 (UACC-62): 1.62 µM; GI50 (UO-31): 16.6 µM |
| O=C(CNC(=O)c1cccc2ccccc12)Nc1ccccc1Oc1ccccc1 [AOH1160] | > 20 µM | 0.447 µM | 0.257 µM | 0.457 µM | 0.832 µM | 0.407 µM | 0.309 µM | 0.708 µM | 0.324 µM | 0.245 µM | 0.269 µM | 0.363 µM | 0.288 µM | 0.288 µM | 0.309 µM | 0.309 µM | 0.0427 µM | 0.347 µM | 0.661 µM | 4.57 µM | GI50 (PC-3): 0.302 µM; GI50 (SF-539): 0.24 µM; GI50 (SK-MEL-2): 0.269 µM; GI50 (SN12C): 0.589 µM; GI50 (SNB-19): 0.457 µM; GI50 (SR): 0.0832 µM; GI50 (SW-620): 0.282 µM; GI50 (UACC-62): 0.178 µM; GI50 (UO-31): 0.646 µM |
| COc1ccc(Oc2ccccc2NC(=O)CNC(=O)c2cccc3ccccc23)cc1 [PCNA6] | > 20 µM | 1.15 µM | 0.562 µM | 1.26 µM | 1.51 µM | 1.12 µM | 0.646 µM | 1.41 µM | 0.617 µM | 0.589 µM | 0.617 µM | 1.7 µM | 0.575 µM | 0.575 µM | 1.35 µM | 0.257 µM | 0.0832 µM | 0.955 µM | 1.29 µM | 2.24 µM | GI50 (PC-3): 1.05 µM; GI50 (SF-539): 0.575 µM; GI50 (SK-MEL-2): 2.29 µM; GI50 (SN12C): 2.29 µM; GI50 (SNB-19): 1.23 µM; GI50 (SR): 0.166 µM; GI50 (SW-620): 0.676 µM; GI50 (UACC-62): 0.562 µM; GI50 (UO-31): 1.48 µM |
